# Laboratory results from patent publication US20250313563A1, “GLYCOGEN SYNTHASE KINASE 3 INHIBITORS AND USES THEREOF” (The Broad Institute, Inc., priority 2022, published 2025).
# Like-named read-outs stand apart in the source and are kept apart here.
# Experiments:
# [1] = molecular target: GSK3b (GST-full length GSK3b) (Homo sapiens (Human), UniProt P49841); assay: GSK3b TR-FRET kinase assay; format: biochemical
# Summary of the method: (§1)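 1 nM GST-GSK3α/β + cpd, 30 min preinc; add 200 nM biotin-pS645 GS(631-650) peptide + ATP (α 4 μM / β 2 μM, or 1 mM); 100 min RT, 50 mM Tris pH 7.5, 20 mM MgCl2, 1% DMSO; EDTA stop; SA-d2/Tb-pSer641 Ab 60 min; 665/615 ratio → IC50.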
# [2] = molecular target: GSK3α (GST-full length GSK3α) (Homo sapiens (Human), UniProt P49840); assay: GSK3α TR-FRET kinase assay; format: biochemical
# Sequence of GSK3α (GST-full length GSK3α) (P49840 whole entry): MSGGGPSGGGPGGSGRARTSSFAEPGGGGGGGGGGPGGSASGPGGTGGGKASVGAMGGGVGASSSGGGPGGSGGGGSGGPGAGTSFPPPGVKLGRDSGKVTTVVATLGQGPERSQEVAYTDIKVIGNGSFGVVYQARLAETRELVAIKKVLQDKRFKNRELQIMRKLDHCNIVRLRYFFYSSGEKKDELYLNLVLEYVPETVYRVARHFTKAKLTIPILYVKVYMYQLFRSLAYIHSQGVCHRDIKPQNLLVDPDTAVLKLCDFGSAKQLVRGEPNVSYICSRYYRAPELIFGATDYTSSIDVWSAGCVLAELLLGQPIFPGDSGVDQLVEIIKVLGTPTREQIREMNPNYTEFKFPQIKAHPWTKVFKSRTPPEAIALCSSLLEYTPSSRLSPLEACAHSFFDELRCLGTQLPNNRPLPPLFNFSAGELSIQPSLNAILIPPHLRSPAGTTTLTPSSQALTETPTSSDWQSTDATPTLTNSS
# Summary of the method: as §1
# [3] = 1 nM GSK3b, 2 μM ATP, 30 minute preincubation, read-out: GSK3-B TR-FRET BIOCHEMICAL (TR-FRET), IC50
# [4] = 1 nM GSK3α, 4 μM ATP, 30 minute preincubation, read-out: GSK3-A TR-FRET BIOCHEMICAL (TR-FRET), IC50
# [5] = 1 nM GSK3b, 2 μM ATP, 30 minute preincubation, Table 16, read-out: GSK3-B TR-FRET BIOCHEMICAL (TR-FRET)
# [6] = 1 nM GSK3α, 4 μM ATP, 30 minute preincubation, Table 16, read-out: GSK3-A TR-FRET BIOCHEMICAL (TR-FRET)
# [7] = read-out: GSK3-B (TR-FRET 1 mM ATP), GMean, IC50, 1 mM ATP, geometric mean
# [8] = read-out: GSK3-A (TR-FRET 1 mM ATP), GMean, IC50, 1 mM ATP, geometric mean
# [9] = 1 nM GSK3b, 2 μM ATP, 30 minute preincubation, Table 16, read-out: GSK3-B TR-FRET BIOCHEMICAL (TR-FRET), IC50
# [10] = 1 nM GSK3α, 4 μM ATP, 30 minute preincubation, Table 16, read-out: GSK3-A TR-FRET BIOCHEMICAL (TR-FRET), IC50
# Sequence of GSK3b (GST-full length GSK3b) (P49841 whole entry): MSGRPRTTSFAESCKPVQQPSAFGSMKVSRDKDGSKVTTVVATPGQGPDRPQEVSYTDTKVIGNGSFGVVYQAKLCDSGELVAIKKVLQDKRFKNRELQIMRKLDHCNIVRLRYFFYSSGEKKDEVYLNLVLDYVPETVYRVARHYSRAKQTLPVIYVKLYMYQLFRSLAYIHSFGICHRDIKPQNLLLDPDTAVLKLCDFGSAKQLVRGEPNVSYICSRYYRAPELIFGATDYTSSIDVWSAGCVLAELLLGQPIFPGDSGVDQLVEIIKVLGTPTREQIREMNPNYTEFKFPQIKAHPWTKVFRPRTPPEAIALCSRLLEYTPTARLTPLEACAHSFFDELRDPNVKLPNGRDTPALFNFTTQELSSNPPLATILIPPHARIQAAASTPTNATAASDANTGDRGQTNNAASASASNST
"IC50 [1, 5] [nM]","IC50 [2, 6] [nM]","IC50 [1, 9] [nM]","IC50 [2, 10] [nM]",Structure (SMILES),other results
,,,,CCC1(c2cccc(-c3ccnc(C)c3)c2)C2=C(CC(C)NC2=O)Nc2n[nH]cc21 (stereo not shown) [Compound 913357],"IC50 [1, 3]: 1000 to 5000 nM; IC50 [2, 4]: 100 to 1000 nM"
,,,,CCC1(c2cccc(Br)c2)C2=C(CC(C)(C)NC2=O)Nc2n[nH]cc21 (stereo not shown) [Compound 913439],"IC50 [1, 3]: 100 to 1000 nM; IC50 [2, 4]: ≤ 100 nM"
100 to 1000,100 to 1000,,,O=C1CC2(CSC2)CC2=C1C1(CCCC1)c1c[nH]nc1N2 [Compound 913441],
100 to 1000,100 to 1000,,,CC1(C)CC(=O)C2=C(C1)Nc1n[nH]cc1[C@@]21CO[C@@H](C2CC2)C1 [Compound 913442],
100 to 1000,≤ 100,,,CC[C@@]1(c2cccc(C(F)(F)F)c2)C2=C(Nc3n[nH]cc31)C(C)(C)NC2=O [Compound 913451],
,,,,CC[C@@]1(c2cccc(C(F)(F)F)c2)C2=C(CC3(CCC3)NC2=O)Nc2n[nH]cc21 [Compound 914308],"IC50 [1, 3]: ≤ 100 nM; IC50 [1, 7]: 1000 to 5000 nM; IC50 [2, 4]: ≤ 100 nM; IC50 [2, 8]: 100 to 1000 nM"
,,,,CCC1(c2cccc(-c3ccnc(C)c3)c2)C2=C(CC(C)(C)NC2=O)Nc2n[nH]cc21 (stereo not shown) [Compound 914930],"IC50 [1, 3]: 1000 to 5000 nM; IC50 [2, 4]: ≤ 100 nM"
,,,,CCC1(c2cccc(-c3ccnn3C)c2)C2=C(CC(C)(C)NC2=O)Nc2n[nH]cc21 (stereo not shown) [Compound 914971],"IC50 [1, 3]: 100 to 1000 nM; IC50 [2, 4]: ≤ 100 nM"
,,≤ 100,≤ 100,CC[C@@]1(c2cccc(N(C)c3cnccn3)c2)C2=C(CC(C)(C)CC2=O)Nc2n[nH]cc21 [Compound 915316],
,,1000 to 5000,100 to 1000,CC[C@]1(c2cccc(N(C)c3cnccn3)c2)C2=C(CC(C)(C)CC2=O)Nc2n[nH]cc21 [Compound 915340],
,,≤ 100,≤ 100,CC[C@@]1(c2cccc(N(C)c3cncnc3)c2)C2=C(CC(C)(C)CC2=O)Nc2n[nH]cc21 [Compound 915400],
,,1000 to 5000,100 to 1000,CC[C@]1(c2cccc(N(C)c3cncnc3)c2)C2=C(CC(C)(C)NC2=O)Nc2n[nH]cc21 [Compound 915401],
,,≤ 100,≤ 100,CCC1(c2cccc(N3CCCc4ncccc43)c2)C2=C(CC(C)(C)CC2=O)Nc2n[nH]cc21 (stereo not shown) [Compound 917076],
,,1000 to 5000,100 to 1000,CCC1(c2cccc(N3CCCc4ncccc43)c2)C2=C(CC(C)(C)CC2=O)Nc2n[nH]cc21 (stereo not shown) [Compound 917079],
≤ 100,≤ 100,,,CC1(C)CC(=O)C2=C(C1)Nc1n[nH]cc1C21CC(c2ccccc2)C1 (stereo not shown) [Compound 917081],
≤ 100,≤ 100,,,CC1(C)CC(=O)C2=C(C1)Nc1n[nH]cc1C21CC(c2ccccc2)C1 (stereo not shown) [Compound 917082],
,,,,CCC1(c2cccc(N(c3cccnc3)C(C)C)c2)C2=C(CC(C)(C)CC2=O)Nc2n[nH]cc21 (stereo not shown) [Compound 917086],"IC50 [1, 7]: 1000 to 5000 nM; IC50 [2, 8]: 100 to 1000 nM"
,,1000 to 5000,100 to 1000,CC[C@]1(c2cccc(N(c3cccnc3)C(C)C)c2)C2=C(CC(C)(C)CC2=O)Nc2n[nH]cc21 [Compound 917087],
,,≤ 100,≤ 100,CCN(c1cccnc1)c1cccc(C2(CC)C3=C(CC(C)(C)CC3=O)Nc3n[nH]cc32)c1 (stereo not shown) [Compound 917088],"IC50 [1, 7]: 1000 to 5000 nM; IC50 [2, 8]: 100 to 1000 nM"
,,1000 to 5000,100 to 1000,CCN(c1cccnc1)c1cccc(C2(CC)C3=C(CC(C)(C)CC3=O)Nc3n[nH]cc32)c1 (stereo not shown) [Compound 917089],
,,,,CC1(C)CC(=O)C2=C(C1)Nc1n[nH]cc1[C@]21COC2(CCC2)C1 [Compound 917128],"IC50 [1, 3]: 100 to 1000 nM; IC50 [2, 4]: 100 to 1000 nM"
,,,,CC1(C)CC(=O)C2=C(C1)Nc1n[nH]cc1[C@@]21COC2(CCC2)C1 [Compound 917129],"IC50 [1, 3]: 100 to 1000 nM; IC50 [2, 4]: 100 to 1000 nM"
,,≤ 100,≤ 100,CCCS(=O)(=O)c1cccc(C2(CC)C3=C(CC(C)(C)CC3=O)Nc3n[nH]cc32)c1 (stereo not shown) [Compound 917131],
≤ 100,≤ 100,,,CC1(C)CC2=C(C(=O)C1F)[C@]1(CC[C@H](C(F)(F)F)CC1)c1c[nH]nc1N2 (stereo partly shown) [Compound 917133],
100 to 1000,≤ 100,,,CC1(C)CC2=C(C(=O)C1F)[C@]1(CC[C@@H](C(F)(F)F)CC1)c1c[nH]nc1N2 (stereo partly shown) [Compound 917134],
100 to 1000,≤ 100,,,CC1(C)CC(=O)C2=C(Nc3n[nH]cc3[C@]23CC[C@@H](C(F)(F)F)CC3)C1F (stereo partly shown) [Compound 917135],

"IC50 [1, 5] [nM]","IC50 [2, 6] [nM]","IC50 [1, 9] [nM]","IC50 [2, 10] [nM]",Structure (SMILES),other results
100 to 1000,≤ 100,,,CC1(C)CC(=O)C2=C(Nc3n[nH]cc3[C@]23CC[C@H](C(F)(F)F)CC3)C1F (stereo partly shown) [Compound 917136],
≤ 100,≤ 100,,,CC1(C)CC(=O)C2=C(C1)Nc1n[nH]cc1C21CCCN(S(=O)(=O)C2CC2)CC1 (stereo not shown) [Compound 917137],
≤ 100,≤ 100,,,Cn1ccc(S(=O)(=O)N2CCCC3(CC2)C2=C(CC(C)(C)CC2=O)Nc2n[nH]cc23)n1 (stereo not shown) [Compound 917138],
≤ 100,≤ 100,,,CC1(C)CC(=O)C2=C(C1)Nc1n[nH]cc1C21CN(S(=O)(=O)C2CCCC2)C1 [Compound 917139],"IC50 ([1]; GSK3-B (TR-FRET 1 mM ATP), GMean, IC50, 1 mM ATP, geometric mean): 100 to 1000 nM; IC50 ([2]; GSK3-A (TR-FRET 1 mM ATP), GMean, IC50, 1 mM ATP, geometric mean): 100 to 1000 nM"
100 to 1000,≤ 100,,,COc1cccc(S(=O)(=O)N2CCCC3(CC2)C2=C(CC(C)(C)CC2=O)Nc2n[nH]cc23)c1 (stereo not shown) [Compound 917140],
100 to 1000,≤ 100,,,COc1ccc(S(=O)(=O)N2CCCC3(CC2)C2=C(CC(C)(C)CC2=O)Nc2n[nH]cc23)cc1 (stereo not shown) [Compound 917141],
100 to 1000,≤ 100,,,COc1ccccc1S(=O)(=O)N1CCCC2(CC1)C1=C(CC(C)(C)CC1=O)Nc1n[nH]cc12 (stereo not shown) [Compound 917142],
≤ 100,≤ 100,,,COc1ccc(S(=O)(=O)N2CCC3(CC2)C2=C(CC(C)(C)CC2=O)Nc2n[nH]cc23)cc1 [Compound 917143],
≤ 100,≤ 100,,,CC1(C)CC(=O)C2=C(C1)Nc1n[nH]cc1C21CN(S(=O)(=O)c2ccc(F)cc2)C1 [Compound 917144],
,,1000 to 5000,1000 to 5000,CC1(C)CC(=O)C2=C(C1)Nc1n[nH]cc1C21CCCN(c2ccncn2)CC1 (stereo not shown) [Compound 917145],
,,≤ 100,≤ 100,CCC1(c2cccc(N(C)c3ccnc(F)c3)c2)C2=C(CC(C)(C)CC2=O)Nc2n[nH]cc21 (stereo not shown) [Compound 917146],
,,100 to 1000,≤ 100,CCc1cc(N(C)c2cccc(C3(CC)C4=C(CC(C)(C)CC4=O)Nc4n[nH]cc43)c2)ccn1 (stereo not shown) [Compound 917147],
,,1000 to 5000,100 to 1000,CCC1(c2cccc(N(C)c3ccnc(C)c3)c2)C2=C(CC(C)(C)CC2=O)Nc2n[nH]cc21 (stereo not shown) [Compound 917149],
,,≤ 100,≤ 100,CCC1(c2cccc(S(=O)(=O)CC3CC3)c2)C2=C(CC(C)(C)CC2=O)Nc2n[nH]cc21 (stereo not shown) [Compound 917150],"IC50 [1, 7]: 100 to 1000 nM; IC50 [2, 8]: ≤ 100 nM"
,,> 5000,1000 to 5000,CC[C@@]1(c2cccc(S(=O)(=O)CC3CC3)c2)C2=C(CC(C)(C)CC2=O)Nc2n[nH]cc21 [Compound 917151],
,,100 to 1000,≤ 100,CCC1(c2cccc(N(C)c3ccc(F)nc3)c2)C2=C(CC(C)(C)CC2=O)Nc2n[nH]cc21 (stereo not shown) [Compound 917152],
> 5000,> 5000,,,CC[C@@]1(c2cccc(C(F)(F)F)c2)C2=C(CNC2=O)Nc2n[nH]cc21 [Compound 917157],
1000 to 5000,100 to 1000,,,CCC1(c2cccc(C(F)(F)F)c2)C2=C(CNC2=O)Nc2n[nH]cc21 (stereo not shown) [Compound 917158],
100 to 1000,≤ 100,,,CCC1(c2cccc(C(F)(F)F)c2)C2=C(CN(Cc3ccccc3)C2=O)Nc2n[nH]cc21 (stereo not shown) [Compound 917159],
100 to 1000,100 to 1000,,,C[C@@H]1C[C@]2(CCN1S(=O)(=O)c1ccn(C)n1)C1=C(CC(C)(C)CC1=O)Nc1n[nH]cc12 [Compound 917160],
≤ 100,≤ 100,,,C[C@@H]1C[C@@]2(CCN1S(=O)(=O)c1ccn(C)n1)C1=C(CC(C)(C)CC1=O)Nc1n[nH]cc12 [Compound 917161],
,,> 5000,> 5000,CC[C@]1(c2cccc(N3CCCC[C@H]3C)c2)C2=C(CC(C)(C)CC2=O)Nc2n[nH]cc21 [Compound 917210],
,,100 to 1000,≤ 100,CCC1(c2cccc(Oc3cncnc3)c2)C2=C(CC(C)(C)CC2=O)Nc2n[nH]cc21 (stereo not shown) [Compound 917212],
,,100 to 1000,100 to 1000,CC1(C)CC(=O)C2=C(C1)Nc1n[nH]cc1C21Cc2ccccc21 (stereo not shown) [Compound 917226],
,,,,CC1(C)CC(=O)C2=C(C1)Nc1n[nH]cc1C21COC2(CN(C(=O)c3ccccc3)C2)C1 (stereo not shown) [Compound 917231],"IC50 [1, 3]: ≤ 100 nM; IC50 [2, 4]: ≤ 100 nM"
,,,,CC1(C)CC(=O)C2=C(C1)Nc1n[nH]cc1C21COC2(CN(C(=O)C3CCCC3)C2)C1 (stereo not shown) [Compound 917232],"IC50 [1, 3]: ≤ 100 nM; IC50 [2, 4]: ≤ 100 nM"
